From patent publication US6902881B2, “Compounds and methods for regulating cell differentiation” (priority 2000, dated 2005)

Columns and labels:
[1] = Photo transformation of biliverdin by UV irradiation of embryos (HPLC peak area); format: physicochemical, Xenopus laevis
Method: The cytoplasmic yolk platelet fraction that was photo transformed by UV light was identified in extracts of about 250 embryos irradiated with 366 nm UV light. The chromatogram of irradiated embryo extracts was compared to that of the non-irradiated ones to identify the photo transformed fraction. Once the retention time of the UV sensitive fraction was determined, the parent chemical species was isolated from control egg extracts. To confirm its UV sensitivity, an aliquot of the pertinent HPLC fraction in 44% acetonitrile and 3 mM ammonium acetate, pH 4.5, was irradiated in a cuvette in a Varian-Cary Bio 50 spectrophotometer at 366 nm. The pH was chosen to approximate that of intact yolk platelets. The wavelength was selected on the basis of the absorption spectra of the target fraction. The absorbance change was monitored at 375 nm. […]
After UV irradiation, a set of embryos from each group were collected, dejellied with 2% L-cysteine, 0.16M NaOH and washed extensively in 20% Steimberg's buffer. […] The bilins and retinoids in each batch were extracted, separated and analyzed as described. […] The gross morphological appearance of each individual embryo was evaluated by light microscopy. The developmental teratology characteristic of the “UV syndrome,” was scored by standard criteria and categorized into the five groups comprising the “index of axis deficiency”. […]

HT 29 Cancer Cells = assay: Distribution of cell cycle stages of HT 29 cancer cells; format: cell-based, human
Description: The presence of the CDK-inhibitors leads to under phosphorylation of Rb protein. As a consequence, the cells are removed from cycling and the number of cells in G1 increases while those in S and G2 decrease, compared with control, untreated ones. This response of cell cycle kinetics is quite similar to those reported for other agents known to cause a G1, block e.g. troglitazone. Ultimately, proliferation ceases within one to three days. […] This decreased rate persists even after the tetrapyrrole is no longer added to the incubation medium. Finally, twelve days after its removal, proliferation resumes at a brisker rate dividing every 41 hrs. This rate is still slower than that of the control cells that double every 18 hrs. […] In contrast, cellular survival or proliferation is not affected by amounts lower than 10^−7 M biliverdin (not shown).

[2] = tested on: alkaline phosphatase activity in HT 29 cells; assay: Cellular alkaline phosphatase activity of HT 29 cells; format: cell-based, human; details: HT 29, by day 20 of incubation
Method: Expression of differentiation markers. Carcinoembryogenic antigen in cell supernatants collected each three days was assayed by standard ELISA determinations using an IMX assay for quantitative measurement of the antigen. Cellular triacyl glycerol content was measured spectrophotometrically by enzymatic hydrolysis and analysis of the amount of glycerol released using a standard assay, Triglyceride (INT) 10 (Sigma Diagnostics). […] The fluorescence is detected at 450 nm with an excitation of 365 nm, using a Jobin Ivon-Spex Fluoro Max-2 fluorimeter. The alkaline phosphatase activity detected was expressed in units of μmol/mg protein/min. Alkaline phosphatase activity was assayed at the same periods as above but with different sets of cells. Treated and control cells were detached with trypsin and counted. One half of the cells were used to maintain the culture while the other half were used to measure alkaline phosphatase activity. […] Absorbance was detected at […] on a Varian Cary UV-Visible Spectrophotometer. The absorbance was compared against a standard curve created with bovine serum albumin from 2.5 to 25 μg/ml. […] The fluorescence generated is detected at 450 nm with an excitation of 365 nm, using a Jobin Ivon-Spex Fluoro Max-2 fluorimeter. […] The alkaline phosphatase actively detected was expressed in units of μmol product/mg protein/min.

[3] = molecular target: T1, peroxisome proliferator-activated receptor (PPARγ) system (Homo sapiens, UniProt P37231); assay: Use of the peroxisome proliferator-activated receptor system
T1 sequence (P37231 1-505): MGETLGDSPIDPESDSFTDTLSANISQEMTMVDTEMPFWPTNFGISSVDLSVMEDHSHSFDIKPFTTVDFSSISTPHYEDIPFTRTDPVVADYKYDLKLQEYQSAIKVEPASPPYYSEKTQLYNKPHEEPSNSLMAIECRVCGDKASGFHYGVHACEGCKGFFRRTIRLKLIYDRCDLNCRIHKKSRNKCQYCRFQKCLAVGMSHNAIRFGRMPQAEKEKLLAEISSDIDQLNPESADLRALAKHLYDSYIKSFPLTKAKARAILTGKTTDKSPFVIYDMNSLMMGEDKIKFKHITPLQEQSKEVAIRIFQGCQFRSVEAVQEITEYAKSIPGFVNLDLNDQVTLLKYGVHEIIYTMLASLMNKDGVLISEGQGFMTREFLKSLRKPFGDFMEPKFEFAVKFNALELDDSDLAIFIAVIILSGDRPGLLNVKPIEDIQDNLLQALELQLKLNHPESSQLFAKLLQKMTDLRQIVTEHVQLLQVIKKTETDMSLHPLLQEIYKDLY

C=CC1=C(C)/C(=C/C2=NC(=C\c3[nH]c(/C=C4\NC(=O)C(C)=C4C=C)c(C)c3CCC(=O)O)/C(CCC(=O)O)=C2C)NC1=O [Biliverdin, biliverdin IXα]
share of the 23.3 min peak area photo transformed by UV irradiation ([1]; embryos irradiated with 366 nm UV light, typical experiment): > 67%
decrease of content after UV irradiation ([1]; pre-cleavage embryos exposed to 358 nm for 10 min): 50%
cells in G2 (HT 29 Cancer Cells; control 11): 7%
cells in G1 (HT 29 Cancer Cells; control 42): 63%
cells in S (HT 29 Cancer Cells; control 47): 30%
peak increase of alkaline phosphatase activity [2]: fifteen-fold
use of the PPARγ system [3]: does not use
